US20220248678A1, “HERBICIDAL COMPOUNDS” (SYNGENTA CROP PROTECTION AG, priority 2019, published 2022)

Key:
Assay in all cases: Post-emergence efficacy, glasshouse
Type in all cases: in vivo
Conditions in all cases: after 13 days, 100=total damage to plant, 0=no damage to plant
[1] = test system: Amaranthus palmeri (AMAPA)
Experimental: (§1) Seeds of a variety of test species were shown in standard soil in pots. After cultivation for 14 days (post-emergence) under controlled conditions in a glasshouse (at 24/16° C., day/night; 14 hours light; 65% humidity), the plants were sprayed with an aqueous spray solution derived from the dissolution of the technical active ingredient for each of compounds 1 to 26 from Table A above, in a small amount of acetone and a special solvent and emulsifier mixture referred to as IF50 (11.12% Emulsogen EL360 TM+44.44% N-methylpyrrolidone+44.44% Dowanol DPM glycol ether), to create a 50 g/I solution which was then diluted to required concentration using 0.25% or 1% Empicol ESC70 (Sodium lauryl ether sulphate)+1% ammonium sulphate in water as diluent. These spray test compositions are described as composition numbers C1 to C26, with the numerical value corresponding to the compound number from Table A.
(§2) The test plants were then grown in a glasshouse under controlled conditions (at 24/16° C., day/night; 14 hours light; 65% humidity) and watered twice daily. After 13 days the test was evaluated (100=total damage to plant; 0=no damage to plant).
(§3) Ipomoea hederacea (IPOHE), Euphorbia heterophylla (EPHHL), Chenopodium album (CHEAL), Amaranthus palmeri (AMAPA), Lolium perenne (LOLPE), Digitaria sanguinalis (DIGSA), Eleusine indica (ELEIN), Echinochloa crus-galli (ECHCG), Setaria faberi (SETFA)

[2] = test system: Digitaria sanguinalis (DIGSA)
Experimental: as §1, §2, §3

[3] = test system: Setaria faberi (SETFA)
Experimental: as §1, §2, §3

[4] = test system: Chenopodium album (CHEAL)
Experimental: as §1, §2, §3

[5] = test system: Eleusine indica (ELEIN)
Experimental: as §1, §2, §3

[6] = test system: Lolium perenne (LOLPE)
Experimental: as §1, §2, §3

[7] = test system: Ipomoea hederacea (IPOHE)
Experimental: as §1, §2, §3

[8] = test system: Euphorbia heterophylla (EPHHL)
Experimental: as §1, §2, §3

[9] = test system: Echinochloa crus-galli (ECHCG)
Experimental: as §1, §2, §3

SMILES: CCOP(=O)(O)c1c[n+](C)nc2ccccc12.O=C([O-])C(F)(F)F [Composition C1]
- Control of weed species AMAPA ([1]; 1000 g/Ha): 90
- Control of weed species DIGSA ([2]; 1000 g/Ha): 90
- Control of weed species SETFA ([3]; 1000 g/Ha): 80
- Control of weed species CHEAL ([4]; 1000 g/Ha): 100
- Control of weed species ELEIN ([5]; 1000 g/Ha): 90
- Control of weed species LOLPE ([6]; 1000 g/Ha): 60
- Control of weed species IPOHE ([7]; 1000 g/Ha): 100
- Control of weed species EPHHL ([8]; 1000 g/Ha): 100
- Control of weed species ECHCG ([9]; 1000 g/Ha): 70

SMILES: CCCCOP(=O)(O)c1c[n+](C)nc2ccccc12.O=C([O-])C(F)(F)F [Composition C2]
- Control of weed species AMAPA ([1]; 500 g/Ha): 60
- Control of weed species DIGSA ([2]; 500 g/Ha): 60
- Control of weed species SETFA ([3]; 500 g/Ha): 60
- Control of weed species CHEAL ([4]; 500 g/Ha): 70
- Control of weed species ELEIN ([5]; 500 g/Ha): 40
- Control of weed species LOLPE ([6]; 500 g/Ha): 30
- Control of weed species IPOHE ([7]; 500 g/Ha): 80
- Control of weed species EPHHL ([8]; 500 g/Ha): 100
- Control of weed species ECHCG ([9]; 500 g/Ha): 30

SMILES: CCOP(=O)(O)c1c[n+](C)nc2ccccc12.[Cl-] [Composition C3]
- Control of weed species AMAPA ([1]; 1000 g/Ha): 90
- Control of weed species DIGSA ([2]; 1000 g/Ha): 100
- Control of weed species SETFA ([3]; 1000 g/Ha): 90
- Control of weed species CHEAL ([4]; 1000 g/Ha): 100
- Control of weed species ELEIN ([5]; 1000 g/Ha): 90
- Control of weed species LOLPE ([6]; 1000 g/Ha): 50
- Control of weed species IPOHE ([7]; 1000 g/Ha): 100
- Control of weed species EPHHL ([8]; 1000 g/Ha): 100
- Control of weed species ECHCG ([9]; 1000 g/Ha): 70

SMILES: C#CCOP(=O)([O-])c1c[n+](C)nc2ccccc12 [Composition C4]
- Control of weed species AMAPA ([1]; 1000 g/Ha): 100
- Control of weed species DIGSA ([2]; 1000 g/Ha): 100
- Control of weed species SETFA ([3]; 1000 g/Ha): 100
- Control of weed species CHEAL ([4]; 1000 g/Ha): 100
- Control of weed species ELEIN ([5]; 1000 g/Ha): 100
- Control of weed species LOLPE ([6]; 1000 g/Ha): 90
- Control of weed species IPOHE ([7]; 1000 g/Ha): 100
- Control of weed species EPHHL ([8]; 1000 g/Ha): 100
- Control of weed species ECHCG ([9]; 1000 g/Ha): 90

SMILES: C=CCOP(=O)([O-])c1c[n+](C)nc2ccccc12 [Composition C5]
- Control of weed species AMAPA ([1]; 500 g/Ha): 90
- Control of weed species DIGSA ([2]; 500 g/Ha): 90
- Control of weed species SETFA ([3]; 500 g/Ha): 80
- Control of weed species CHEAL ([4]; 500 g/Ha): 100
- Control of weed species ELEIN ([5]; 500 g/Ha): 100
- Control of weed species LOLPE ([6]; 500 g/Ha): 60
- Control of weed species IPOHE ([7]; 500 g/Ha): 70
- Control of weed species EPHHL ([8]; 500 g/Ha): 90
- Control of weed species ECHCG ([9]; 500 g/Ha): 90

SMILES: C[n+]1cc(P(=O)([O-])OCC(F)(F)F)c2ccccc2n1 [Composition C6]
- Control of weed species AMAPA ([1]; 1000 g/Ha): 100
- Control of weed species DIGSA ([2]; 1000 g/Ha): 100
- Control of weed species SETFA ([3]; 1000 g/Ha): 90
- Control of weed species CHEAL ([4]; 1000 g/Ha): 100
- Control of weed species ELEIN ([5]; 1000 g/Ha): 100
- Control of weed species LOLPE ([6]; 1000 g/Ha): 80
- Control of weed species IPOHE ([7]; 1000 g/Ha): 100
- Control of weed species EPHHL ([8]; 1000 g/Ha): 100
- Control of weed species ECHCG ([9]; 1000 g/Ha): 100

SMILES: C[n+]1cc(P(=O)([O-])OCC2CC2)c2ccccc2n1 [Composition C7]
- Control of weed species AMAPA ([1]; 1000 g/Ha): 90
- Control of weed species DIGSA ([2]; 1000 g/Ha): 100
- Control of weed species SETFA ([3]; 1000 g/Ha): 90
- Control of weed species CHEAL ([4]; 1000 g/Ha): 90
- Control of weed species ELEIN ([5]; 1000 g/Ha): 100
- Control of weed species LOLPE ([6]; 1000 g/Ha): 60
- Control of weed species IPOHE ([7]; 1000 g/Ha): 100
- Control of weed species EPHHL ([8]; 1000 g/Ha): 100
- Control of weed species ECHCG ([9]; 1000 g/Ha): 80

SMILES: CC(C)OP(=O)([O-])c1c[n+](C)nc2ccccc12 [Composition C8]
- Control of weed species AMAPA ([1]; 1000 g/Ha): 100
- Control of weed species DIGSA ([2]; 1000 g/Ha): 100
- Control of weed species SETFA ([3]; 1000 g/Ha): 90
- Control of weed species CHEAL ([4]; 1000 g/Ha): 100
- Control of weed species ELEIN ([5]; 1000 g/Ha): 100
- Control of weed species LOLPE ([6]; 1000 g/Ha): 50
- Control of weed species IPOHE ([7]; 1000 g/Ha): 100
- Control of weed species EPHHL ([8]; 1000 g/Ha): 100
- Control of weed species ECHCG ([9]; 1000 g/Ha): 100

SMILES: COP(=O)([O-])c1c(C)[n+](C)nc2ccccc12 [Composition C9]
- Control of weed species AMAPA ([1]; 1000 g/Ha): 100
- Control of weed species DIGSA ([2]; 1000 g/Ha): 80
- Control of weed species SETFA ([3]; 1000 g/Ha): 70
- Control of weed species CHEAL ([4]; 1000 g/Ha): 90
- Control of weed species ELEIN ([5]; 1000 g/Ha): 80
- Control of weed species LOLPE ([6]; 1000 g/Ha): 50
- Control of weed species IPOHE ([7]; 1000 g/Ha): 90
- Control of weed species EPHHL ([8]; 1000 g/Ha): 50
- Control of weed species ECHCG ([9]; 1000 g/Ha): 40

SMILES: COCCOP(=O)([O-])c1c[n+](C)nc2ccccc12 [Composition C10]
- Control of weed species AMAPA ([1]; 1000 g/Ha): 100
- Control of weed species DIGSA ([2]; 1000 g/Ha): 90
- Control of weed species SETFA ([3]; 1000 g/Ha): 100
- Control of weed species CHEAL ([4]; 1000 g/Ha): 100
- Control of weed species ELEIN ([5]; 1000 g/Ha): 100
- Control of weed species LOLPE ([6]; 1000 g/Ha): 20
- Control of weed species IPOHE ([7]; 1000 g/Ha): 80
- Control of weed species EPHHL ([8]; 1000 g/Ha): 100
- Control of weed species ECHCG ([9]; 1000 g/Ha): 70
